Experiments:
[1] = tested on: HCC1599; conditions: 72 h
In short: (§1)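 Breast cancer cell lines in 20 µl suspension were added to 384-well plates already holding compound at 5 concentrations, spaced in 10-fold steps across a compound-specific 10,000-fold range, and incubated for 72 h. CellTox Green fluorescence (485/520 nm) was read first to measure cell death, followed by CellTiter-Glo luminescence for viability after 10 min at room temperature. Each plate was normalised to 0.1 % DMSO and a positive kill control. EC50 values came from dose-response curve fits and were censored at the top concentration.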

[2] = tested on: CAL-148; conditions: 72 h
In short: as §1

[3] = tested on: HCC1143; conditions: 72 h
In short: as §1

[4] = tested on: HDQ-P1; conditions: 72 h
In short: as §1

[5] = tested on: CAL-85-1; conditions: 72 h
In short: (§2)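 To measure viability, fluorescence at 560/590 nm was read after 2.5 µl CellTiter-Blue had been added for 2 h at 37 °C. Cells from breast cancer lines had been seeded in 20 µl suspension onto 384-well plates pre-loaded with compound dissolved in 5 µl medium and kept for 72 h. EC50 comes from a fitted percent-inhibition dose-response curve censored at the highest concentration, after per-plate normalisation to vehicle and a positive kill control, Z'-factor checks, and removal of rows with zero drug sensitivity score.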

[6] = tested on: CAL-148; conditions: 72 h; remark: listed apart in the source
In short: as §2

[7] = tested on: CAL-51; conditions: 72 h
In short: as §2

[8] = tested on: HDQ-P1; conditions: 72 h; remark: listed apart in the source
In short: as §2

[9] = tested on: MDA-MB-436; conditions: 72 h
In short: as §2

[10] = tested on: MDA-MB-468; conditions: 72 h
In short: as §2

[11] = tested on: MDA-MB-231; conditions: 72 h
In short: as §2

[12] = tested on: BT-474; conditions: 72 h
In short: as §2

[13] = tested on: SK-BR-3; conditions: 72 h
In short: as §2

[14] = tested on: BT-549; conditions: 72 h
In short: as §2

[15] = tested on: CAL-120; conditions: 72 h
In short: as §2

[16] = tested on: CAL-148; experiment: drug sensitivity score (DSS), CellTiter-Blue viability (DSS (AUC-based score)); higher = stronger viability inhibition; extreme values may be limits of the assay; conditions: incubation time: 72 h
Description: (§3)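 DSRT with the CellTiter-Blue (resazurin reduction) viability readout, fluorescence 560/590 nm, 72 h incubation. Plates were normalised to DMSO and benzethonium chloride controls. DSS is computed from the area under the fitted dose-response curve (5 or 9 concentrations).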

[17] = tested on: MDA-MB-231; experiment: as above; conditions: incubation time: 72 h
Description: as §3

[18] = tested on: CAL-85-1; conditions: 72 h; remark: listed apart in the source
Description: (§4)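 Drug sensitivity and resistance testing (DSRT) of breast cancer cell lines in 384-well plates, 5 concentrations in 10-fold dilutions over a compound-specific 10,000-fold range. After 72 h, cytotoxicity was read by CellTox Green fluorescence and viability by CellTiter-Glo luminescence (multiplexed), normalised to DMSO and benzethonium chloride controls. EC50 is the inflection point of the fitted dose-response curve (bottom asymptote free, so it can be relative for partial curves) and is censored at the highest tested concentration. Rows with DSS 0 (no meaningful response) were excluded.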

[19] = tested on: MDA-MB-436; conditions: 72 h; remark: listed apart in the source
Description: as §4

[20] = tested on: CAL-51; conditions: 72 h; remark: listed apart in the source
Description: as §4

[21] = tested on: HDQ-P1; conditions: 72 h; remark: listed apart in the source
Description: as §4

[22] = tested on: BT-474; conditions: 72 h; remark: listed apart in the source
Description: as §4

[23] = tested on: MFM-223; conditions: 72 h
In short: as §1

[24] = tested on: DU-4475; conditions: 72 h
In short: as §1

[25] = tested on: DU-4475; conditions: 72 h; remark: listed apart in the source
In short: as §2

[26] = tested on: HCC1599; conditions: 72 h; remark: listed apart in the source
In short: as §2

[27] = tested on: HCC1937; conditions: 72 h
In short: as §2

[28] = tested on: Hs578T; conditions: 72 h
In short: as §2

[29] = tested on: MFM-223; conditions: 72 h; remark: listed apart in the source
In short: as §2

[30] = tested on: CAL-148; conditions: 72 h; remark: listed apart in the source
Description: as §4

[31] = tested on: HCC1937; conditions: 72 h; remark: listed apart in the source
Description: as §4

[32] = tested on: MDA-MB-468; conditions: 72 h; remark: listed apart in the source
Description: as §4

[33] = tested on: MDA-MB-231; conditions: 72 h; remark: listed apart in the source
Description: as §4

[34] = tested on: MDA-MB-453; conditions: 72 h
Description: as §4

[35] = tested on: BT-549; conditions: 72 h; remark: listed apart in the source
Description: as §4

[36] = tested on: HCC1143; conditions: 72 h; remark: listed apart in the source
In short: as §2

[37] = tested on: HCC1143; conditions: 72 h; remark: listed apart in the source
Description: as §4

| EC50, CellTiter-Glo [1] [nM] | EC50, CellTiter-Glo [3] [nM] | EC50, CellTiter-Blue viability [9] [nM] | EC50, CellTiter-Blue viability [10] [nM] | EC50, CellTiter-Blue viability [11] [nM] | EC50, CellTiter-Blue viability [12] [nM] | EC50, CellTiter-Blue viability [13] [nM] | EC50, CellTiter-Blue viability [14] [nM] | EC50, CellTiter-Blue viability [26] [nM] | EC50, CellTiter-Blue viability [27] [nM] | EC50, CellTiter-Blue viability [36] [nM] | Compound | EC50, CellTiter-Glo [2] [nM] | EC50, CellTiter-Glo [4] [nM] | EC50, CellTiter-Blue viability [5] [nM] | EC50, CellTiter-Blue viability [6] [nM] | EC50, CellTiter-Blue viability [7] [nM] | EC50, CellTiter-Blue viability [8] [nM] | EC50, CellTiter-Blue viability [15] [nM] | drug sensitivity score [16] | drug sensitivity score [17] | EC50, CellTox Green [18] [nM] | EC50, CellTox Green [19] [nM] | EC50, CellTox Green [20] [nM] | EC50, CellTox Green [21] [nM] | EC50, CellTox Green [22] [nM] | EC50, CellTiter-Glo [23] [nM] | EC50, CellTiter-Glo [24] [nM] | EC50, CellTiter-Blue viability [25] [nM] | EC50, CellTiter-Blue viability [28] [nM] | EC50, CellTiter-Blue viability [29] [nM] | EC50, CellTox Green [30] [nM] | EC50, CellTox Green [31] [nM] | EC50, CellTox Green [32] [nM] | EC50, CellTox Green [33] [nM] | EC50, CellTox Green [34] [nM] | EC50, CellTox Green [35] [nM] | EC50, CellTox Green [37] [nM] |
| --- | --- | --- | --- | --- | --- | --- | --- | --- | --- | --- | --- | --- | --- | --- | --- | --- | --- | --- | --- | --- | --- | --- | --- | --- | --- | --- | --- | --- | --- | --- | --- | --- | --- | --- | --- | --- | --- |
| 5900 | 1330 | > 10000 | 1410 | 13.2 | 1540 | 6750 | 1510 | – | – | – | CN1CCN(CCOc2cc(OC3CCOCC3)c3c(Nc4c(Cl)ccc5c4OCO5)ncnc3c2)CC1 [Saracatinib] | 2550 | 541 | 757 | 447 | 700 | 615 | 567 | 1.9 | 7.77 | 2940 | 1620 | 371 | 6610 | 8130 | – | – | – | – | – | – | – | – | – | – | – | – |
| – | 9320 | 505 | 2690 | 4700 | 2790 | 2400 | 8000 | 1730 | 4090 | – | CN(C)C[C@@H]1CCn2cc(c3ccccc32)C2=C(C(=O)NC2=O)c2cn(c3ccccc23)CCO1 [Ruboxistaurin] | 1750 | 2720 | – | 4840 | 4800 | 3540 | 6140 | 3.06 | 4.1 | 2320 | 1000 | 1580 | 5090 | 370 | 3220 | 3790 | 2740 | 8920 | 1480 | 999 | 7550 | 2490 | 2010 | 3790 | 7220 | – |
| 152 | 40.4 | 106 | 149 | 47.4 | 83.8 | 20.1 | 61 | 62.8 | 15.4 | 79.2 | COc1ccc(-c2ccc3c(N4CCOC[C@@H]4C)nc(N4CCOC[C@@H]4C)nc3n2)cc1CO [AZD8055] | 64.1 | 30.5 | 34.7 | 34.5 | 21.9 | 23.8 | 45.4 | 28 | 21.4 | > 10000 | – | 5.2 | – | 9150 | 20.3 | 229 | 104 | 36.9 | 18.7 | 30.7 | – | 6940 | – | – | – | 1470 |

Reference: the supplement of paper PMC4862054
